Results on 23 molecules are retold here after patent publication US10336762B2 (priority 2017, dated 2019).

Experiment [1] deals with TNFα. In words: cells. It is filed as cell-based, human. The settings on record: Homo sapiens, Monocyte, LPS-stimulated human monocytes, TNFα content; read-out: EC50 TNF.
Experiment [2] deals with IRAK4 enzyme (Homo sapiens (Human), UniProt Q9NWZ3). The experiment in a line: biochemical. It is filed as biochemical. The settings on record: IRAK4 enzyme, TR-FRET (HTRF), 500 μM ATP. For orientation: TR-FRET usually uses a lanthanide donor and a delayed reading to cut background.
IRAK4 enzyme, sequence (Q9NWZ3 whole entry): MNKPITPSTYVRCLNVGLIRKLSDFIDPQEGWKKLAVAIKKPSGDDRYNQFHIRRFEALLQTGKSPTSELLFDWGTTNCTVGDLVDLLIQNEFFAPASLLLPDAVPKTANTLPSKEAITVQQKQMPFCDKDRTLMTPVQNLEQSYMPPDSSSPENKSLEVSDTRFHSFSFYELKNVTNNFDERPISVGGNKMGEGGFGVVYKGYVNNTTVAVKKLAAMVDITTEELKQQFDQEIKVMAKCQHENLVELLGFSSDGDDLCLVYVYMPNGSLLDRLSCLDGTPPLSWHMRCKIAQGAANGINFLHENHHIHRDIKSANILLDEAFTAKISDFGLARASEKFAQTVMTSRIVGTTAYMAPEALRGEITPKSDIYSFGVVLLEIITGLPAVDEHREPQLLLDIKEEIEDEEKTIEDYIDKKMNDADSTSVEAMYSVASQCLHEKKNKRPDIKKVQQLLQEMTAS

Broadly, the EC50 is the concentration needed to bring the measured effect to its halfway point. One may read the IC50 as the concentration that inhibits the measured activity by half. Low readings indicate higher potency, high ones lower potency. For `CC(C)(O)[C@H](F)CNC(=O)c1cnc(-c2ccc3cc(C#N)cnn23)cc1NC12CCC(C(N)=O)(CC1)CC2` [Example 398, (R)-4-((4-carbamoylbicyclo[2.2.2]octan-1-yl)amino)-6-(3-cyanopyrrolo[1,2-b]pyridazin-7-yl)-N-(2-fluoro-3-hydroxy-3-methyl-butyl)nicotinamide], the EC50 in experiment [1] is 17 nM. In addition, the 50% inhibitory concentration (IC50) in experiment [2] is < 1 nM.

Consider `CC(C)(O)[C@H](F)CNC(=O)c1cnc(-c2ccc3cc(C#N)cnn23)cc1NC12CCC(N3CCOC3=O)(CC1)CC2` [Example 399, 6-(3-cyanopyrrolo[1,2-b]pyridazin-7-yl)-N-((R)-2-fluoro-3-hydroxy-3-methylbutyl)-4-((4-(2-oxooxazolidin-3-yl)bicyclo[2.2.2]octan-1-yl)amino)nicotinamide], for which the EC50 in experiment [1] amounted to 8 nM. In addition, the IC50 in experiment [2] was < 1 nM.

As to `CC(C)(O)[C@H](F)CNC(=O)c1cnc(-c2ccc3cc(C#N)cnn23)cc1NC12CCC(C(=O)N3CC(F)C3)(CC1)CC2` [Example 400, (R)-6-(3-cyanopyrrolo[1,2-b]pyridazin-7-yl)-N-(2-fluoro-3-hydroxy-3-methylbutyl)-4-((4-(3-fluoroazetidine-1-carbonyl)bicyclo[2.2.2]octan-1-yl)amino) nicotinamide], in experiment [1], the EC50 is 21 nM. In experiment [2], this molecule yielded a half-maximal inhibitory concentration (IC50) of 1 nM.

For `CC(C)(O)[C@H](F)CNC(=O)c1cnc(-c2ccc3cc(C#N)cnn23)cc1NC12CCC(C(=O)N3CCOCC3)(CC1)CC2` [Example 401, (R)-6-(3-cyanopyrrolo[1,2-b]pyridazin-7-yl)-N-(2-fluoro-3-hydroxy-3-methylbutyl)-4-((4-(morpholine-4-carbonyl)bicyclo[2.2.2]octan-1-yl)amino)nicotinamide], in experiment [1], the EC50 is 65 nM. In experiment [2], the IC50 was 2 nM.

In the case of `N#Cc1cnn2c(-c3cc(NC45CCC(O)(CC4)CC5)c(C(=O)NC45CCC(O)(CC4)CC5)cn3)ccc2c1` [Example 402, 6-(3-cyanopyrrolo[1,2-b]pyridazin-7-yl)-N-(4-hydroxybicyclo[2.2.2]octan-1-yl)-4-((4-hydroxy-bicyclo[2.2.2]octan-1-yl)amino)nicotinamide], in experiment [1], the EC50 was determined as 77 nM. In addition, in experiment [2], the IC50 turned out to be 2 nM.

On to `CC(C)(O)[C@H](F)CNC(=O)c1cnc(-c2ccc3cc(C#N)cnn23)cc1NC12CCC(O)(CC1)C2` [Example 403, (R)-6-(3-cyanopyrrolo[1,2-b]pyridazin-7-yl)-N-(2-fluoro-3-hydroxy-3-methylbutyl)-4-((4-hydroxybicyclo[2.2.1]heptan-1-yl)amino) nicotinamide], for which the EC50 in experiment [1] is 14 nM. For the same molecule, the 50% inhibitory concentration (IC50) in experiment [2] was < 1 nM.

Consider `[2H]C([2H])([2H])N(C(=O)C12CCC(Nc3cc(-c4ccc5cc(C#N)cnn45)ncc3C(=O)NC[C@@H](F)C(C)(C)O)(CC1)CC2)C([2H])([2H])[2H]` [Example 404, (R)-4-((4-(bis(methyl-d3)carbamoyl)bicyclo[2.2.2]octan-1-yl)amino)-6-(3-cyanopyrrolo[1,2-b]pyridazin-7-yl)-N-(2-fluoro-3-hydroxy-3-methylbutyl)nicotinamide], for which the EC50 in experiment [1] is 11 nM. 1 nM corresponded to half-maximal inhibition in experiment [2] (IC50).

For the molecule `CC(C)(O)[C@H](F)CNC(=O)c1cnc(-c2ccc3cc(C#N)cnn23)cc1NC12CCC(N3CCC3=O)(CC1)CC2` [Example 405, 6-(3-cyanopyrrolo[1,2-b]pyridazin-7-yl)-N-((R)-2-fluoro-3-hydroxy-3-methylbutyl)-4-((4-(2-oxoazetidin-1-yl)bicyclo[2.2.2]octan-1-yl)amino)nicotinamide], the EC50 in experiment [1] stood at 12 nM. The IC50 in experiment [2] was 1 nM.

Consider `CC(C)(O)[C@H](F)CNC(=O)c1cnc(-c2ccc3cc(C#N)cnn23)cc1NC12CCC(C(=O)NC3CC3)(CC1)CC2` [Example 406, (R)-6-(3-cyanopyrrolo[1,2-b]pyridazin-7-yl)-4-((4-(cyclopropylcarbamoyl)bicyclo[2.2.2]octan-1-yl)amino)-N-(2-fluoro-3-hydroxy-3-methylbutyl) nicotinamide], for which the EC50 in experiment [1] came to 33 nM. Also, in experiment [2], half-maximal inhibition (IC50) was put at 1 nM.

Turning to `CCNC(=O)C12CCC(Nc3cc(-c4ccc5cc(C#N)cnn45)ncc3C(=O)NC[C@@H](F)C(C)(C)O)(CC1)CC2` [Example 407, (R)-6-(3-cyanopyrrolo[1,2-b]pyridazin-7-yl)-4-((4-(ethyl-carbamoyl)bicyclo[2.2.2]octan-1-yl)amino)-N-(2-fluoro-3-hydroxy-3-methylbutyl)nicotinamide], the EC50 in experiment [1] was 20 nM. The midpoint of inhibition in experiment [2], the IC50, lay at 2 nM.

As for `CC(C)(O)[C@H](F)CNC(=O)c1cnc(-c2ccc3cc(C#N)cnn23)cc1NC12CCC(C(=O)N3CCC3)(CC1)CC2` [Example 408, (R)-4-((4-(azetidine-1-carbonyl)bicyclo[2.2.2]octan-1-yl)amino)-6-(3-cyanopyrrolo[1,2-b]pyridazin-7-yl)-N-(2-fluoro-3-hydroxy-3-methylbutyl)nicotinamide], in experiment [1], the 50% effective concentration (EC50) worked out at 31 nM. The same molecule registered an IC50 in experiment [2] of 1 nM.

On to `CC(C)(O)[C@H](F)CNC(=O)c1cnc(-c2ccc3cc(C#N)cnn23)cc1NC12CCC(C(=O)N3CC(F)(F)C3)(CC1)CC2` [Example 409, (R)-6-(3-cyanopyrrolo[1,2-b]pyridazin-7-yl)-4-((4-(3,3-difluoroazetidine-1-carbonyl)bicyclo[2.2.2]octan-1-yl)amino)-N-(2-fluoro-3-hydroxy-3-methylbutyl)nicotinamide], for which the concentration giving a half-maximal response (EC50) in experiment [1] came out at 17 nM. In experiment [2], this molecule gave an IC50 of 1 nM.

`CC(C)(O)[C@H](F)CNC(=O)c1cnc(-c2ccc3cc(C#N)cnn23)cc1NC12CCC(C(=O)NC34CC(C3)C4)(CC1)CC2` [Example 410, (R)-4-((4-(bicyclo[1.1.1]pentan-1-ylcarbamoyl)bicyclo[2.2.2]octan-1-yl)amino)-6-(3-cyano-pyrrolo[1,2-b]pyridazin-7-yl)-N-(2-fluoro-3-hydroxy-3-methylbutyl) nicotinamide]: the EC50 in experiment [1] is 50 nM. The same molecule registered an IC50 in experiment [2] of 2 nM.

Take `CN(C)C(=O)OC12CCC(Nc3cc(-c4ccc5cc(C#N)cnn45)ncc3C(=O)NC[C@@H](F)C(C)(C)O)(CC1)CC2` [Example 411, (R)-4-((2-(3-cyano-pyrrolo[1,2-b]pyridazin-7-yl)-5-((2-fluoro-3-hydroxy-3-methylbutyl)carbamoyl)pyridin-4-yl)amino)bicyclo[2.2.2] octan-1-yl dimethylcarbamate]: the 50% effective concentration (EC50) in experiment [1] turned out to be 62 nM. In experiment [2], the IC50 came to 2 nM.

With `CNC(=O)OC12CCC(Nc3cc(-c4ccc5cc(C#N)cnn45)ncc3C(=O)NC[C@@H](F)C(C)(C)O)(CC1)CC2` [Example 412, (R)-4-((2-(3-cyanopyrrolo[1,2-b]pyridazin-7-yl)-5-((2-fluoro-3-hydroxy-3-methylbutyl)carbamoyl)pyridin-4-yl)amino)bicyclo[2.2.2]octan-1-yl methylcarbamate], the EC50 in experiment [1] was determined as 44 nM. In experiment [2], this molecule displayed an IC50 of 1 nM.

For the molecule `CC(C)(O)[C@H](F)CNC(=O)c1cnc(-c2ccc3cc(C#N)cnn23)cc1Nc1ccc(C#N)cn1` [Example 413, (R)-4-((5-cyanopyridin-2-yl)amino)-6-(3-cyano-pyrrolo[1,2-b]pyridazin-7-yl)-N-(2-fluoro-3-hydroxy-3-methylbutyl) nicotinamide], the EC50 in experiment [1] worked out at 98 nM. In addition, the IC50 in experiment [2] is < 1 nM.

`COC12CCC(Nc3cc(-c4ccc5cc(C#N)cnn45)ncc3C(=O)NC[C@@H](F)C(C)(C)O)(CC1)CC2` [Example 414, 6-(3-cyanopyrrolo[1,2-b]pyridazin-7-yl)-N-((R)-2-fluoro-3-hydroxy-3-methylbutyl)-4-((4-methoxybicyclo[2.2.2]octan-1-yl)amino)nicotinamide]: the EC50 in experiment [1] is 178 nM. This molecule yielded an IC50 in experiment [2] of 12 nM.

As to `CN(C)C(=O)C12CCC(Nc3cc(-c4ccc5cc(C#N)cnn45)ncc3C(=O)NC[C@@H](F)C(C)(C)O)(CC1)CC2` [Example 415, (R)-6-(3-cyanopyrrolo[1,2-b]pyridazin-7-yl)-4-((4-(dimethylcarbamoyl)bicyclo[2.2.2]octan-1-yl)amino)-N-(2-fluoro-3-hydroxy-3-methyl-butyl)nicotinamide], the EC50 in experiment [1] was determined as 14 nM. Further, in experiment [2], the IC50 stood at 1 nM.

For `CNC(=O)C12CCC(Nc3cc(-c4ccc5cc(C#N)cnn45)ncc3C(=O)NC[C@@H](F)C(C)(C)O)(CC1)CC2` [Example 416, 6-(3-cyanopyrrolo[1,2-b]pyridazin-7-yl)-N-((R)-2-fluoro-3-hydroxy-3-methylbutyl)-4-((4-(methylcarbamoyl)bicyclo[2.2.2]octan-1-yl)amino)nicotinamide], in experiment [1], the EC50 is 16 nM. In experiment [2], this molecule registered a 50% inhibitory concentration (IC50) of 1 nM.

For the molecule `CC(=O)OC12CCC(Nc3cc(-c4ccc5cc(C#N)cnn45)ncc3C(=O)NC[C@@H](F)C(C)(C)OC(C)=O)(CC1)CC2` [Example 417, 4-((5-(((R)-3-acetoxy-2-fluoro-3-methylbutyl)carbamoyl)-2-(3-cyanopyrrolo[1,2-b]pyridazin-7-yl)pyridin-4-yl)amino)bicyclo[2.2.2]octan-1-yl acetate], the EC50 in experiment [1] worked out at 151 nM. The same molecule returned a half-maximal inhibitory concentration (IC50) in experiment [2] of 5 nM.

With `CC(=O)OC12CCC(Nc3cc(-c4ccc5cc(C#N)cnn45)ncc3C(=O)NC[C@@H](F)C(C)(C)O)(CC1)CC2` [Example 418, 4-((2-(3-cyanopyrrolo[1,2-b]pyridazin-7-yl)-5-(((R)-2-fluoro-3-hydroxy-3-methylbutyl)carbamoyl)pyridin-4-yl)amino)bicyclo[2.2.2]octan-1-yl acetate], the EC50 in experiment [1] was determined as 36 nM. The same molecule came in with an IC50 in experiment [2] of 1 nM.

For `CC(C)(O)[C@H](F)CNC(=O)c1cnc(-c2ccc3cc(C#N)cnn23)cc1NC1C2CC3CC1CC(O)(C3)C2` (stereo partly drawn) [Example 419, 6-(3-cyanopyrrolo[1,2-b]pyridazin-7-yl)-N-((R)-2-fluoro-3-hydroxy-3-methylbutyl)-4-((5-hydroxyadamantan-2-yl)amino)nicotinamide], in experiment [1], the EC50 was 127 nM. The molecule also displayed a half-maximal inhibitory concentration (IC50) in experiment [2] of 3 nM.

`CC(C)(O)[C@H](F)CNC(=O)c1cnc(-c2ccc3cc(C#N)cnn23)cc1Nc1ncc(C#N)cn1` [Example 420, (R)-4-((5-cyanopyrimidin-2-yl)amino)-6-(3-cyano-pyrrolo[1,2-b]pyridazin-7-yl)-N-(2-fluoro-3-hydroxy-3-methylbutyl)nicotinamide]: the EC50 in experiment [1] was 122 nM. Also, the IC50 in experiment [2] was 6 nM.
